Consider 20 compounds from ChEMBL document CHEMBL1817632, “Synthesis and cytotoxic activity of the heptaphylline and 7-methoxyheptaphylline series” (Eur J Med Chem, 2011).

pIC50: −log10 of the molar value. Active and inactive are the calls of the source. No cut-off for these calls is given here.

The test system of data set [1] is NCI-H187. The data set is described as follows: Cytotoxicity against human NCI-H187 cells after 5 days by resazurin microplate assay. It counts as functional, cell-based. Conditions: NCI-H187, 120 h. (Alamar Blue is a resazurin reagent that responds to reducing activity.)
The subject of data set [2] is KB. The data set is described as follows: Cytotoxicity against human KB cells after 3 days by resazurin microplate assay. It counts as functional, cell-based. Conditions: 72 h.
The test system of data set [3] is Vero. The experiment in a line: Cytotoxicity against african green monkey Vero cells expressing green fluorescent protein after 4 days by fluorescence analysis. It is filed as cell-based. Conditions: chlorocebus sabaeus, 96 h.
The subject of data set [4] is NCI-H187. The data set is described as follows: Ratio of Ellipticine IC50 to compound IC50 for human NCI-H187 cells. It counts as functional.
Data set [5] has as its system KB. The data set is described as follows: Ratio of Ellipticine IC50 to compound IC50 for human KB cells. It is filed as functional.
Data set [6] deals with NCI-H187. The experiment in a line: Cytotoxicity against human NCI-H187 cells at >200 uM after 5 days by resazurin microplate assay. It is filed as functional, cell-based.
For data set [7], the system named is KB. The data set is described as follows: Cytotoxicity against human KB cells at >200 uM after 3 days by resazurin microplate assay. It counts as functional, cell-based.
In data set [8] the test system is Vero. The data set is described as follows: Cytotoxicity against african green monkey Vero cells expressing green fluorescent protein at > 200 uM after 4 days by fluorescence analysis. It counts as cell-based. Conditions: chlorocebus sabaeus, 96 h.

By pIC50 is commonly meant the negative decadic logarithm of the IC50, by convention in mol/L. Regarding `CC(C)=CCc1c(O)c(/C=N\O)cc2c1[nH]c1ccccc12` [HEPTAPHYLLINE OXIME], the pIC50 was 7.70 in the data set on NCI-H187 [1], 6.77 with KB [2] and 4.18 with Vero [3]. For the same compound, the results for the “Ratio IC50” value with NCI-H187 [4] and in the data set on KB [5] were 138 and 10, respectively.
For the compound `COc1ccc2c(c1)[nH]c1c3c(c(C=O)cc12)OC(C)(C)CC3`, the outcome in the data set with NCI-H187 [6] and with KB [7] was inactive. Also, the Activity entry in the data set with Vero [8] is reported as “Non-toxic”.
In the case of `CC(C)=CCc1c(O)c(C=O)cc2c3ccccc3n(C)c12`, the figures for the pIC50 in the data set on NCI-H187 [1], in the data set with KB [2] and in the data set with Vero [3] were 4.35, 3.78 and 4.46, respectively.
Turning to `CC1(C)Oc2c(C=O)cc3c([nH]c4ccccc43)c2CC1O` (stereo not given), the pIC50 in the data set on NCI-H187 [1] and with KB [2] was 5.22 each time. For the same compound, the Activity entry with Vero [8] is “Non-toxic”.
As to `COc1c(C=O)cc2c3ccccc3n(C)c2c1CC=C(C)C`, the pIC50 with NCI-H187 [1] was 4.20; in the data set with KB [2], 3.83; in the data set on Vero [3], 3.83.
For `COc1cc2[nH]c3c(CC(Br)C(C)(C)O)c(O)c(C=O)cc3c2cc1Br` (stereo not given), the figures for the negative logarithm of the IC50 (pIC50) with NCI-H187 [1], in the data set with KB [2] and with Vero [3] were 6.18, 4.44 and 4.90, respectively. For the same compound, the “Ratio IC50” value with NCI-H187 [4] came out at 4.
In the case of `COc1ccc2c(c1)[nH]c1c3c(c(C=O)cc12)OC(C)(C)C(O)C3` (stereo not given), the figures for the pIC50 in the data set on NCI-H187 [1] and in the data set with KB [2] were 5.52 and 3.92, respectively. Further, in the data set with Vero [8], the Activity entry is reported as “Non-toxic”.
In the case of `COc1ccc2c(c1)[nH]c1c(CC3OC3(C)C)c(O)c(C=O)cc12` (stereo not given), the figures for the pIC50 in the data set on NCI-H187 [1], in the data set with KB [2] and in the data set with Vero [3] were 4.70, 5.04 and 4.12, respectively.
As to `COc1ccc2c3cc(C=O)c(OC)c(CC=C(C)C)c3n(C)c2c1`, the figures for the pIC50 in the data set on NCI-H187 [1], in the data set on KB [2] and in the data set with Vero [3] were 5.32, 4.16 and 4.34, respectively.
For `CC1(C)CCc2c(c(C=O)cc3c2[nH]c2ccccc23)O1`, the pIC50 in the data set with NCI-H187 [1] was 4.19; in the data set on KB [2] it was 4.58. The Activity entry in the data set on Vero [8] is on record as “Non-toxic”.
On to `COc1cc2[nH]c3c4c(c(C=O)cc3c2cc1Br)OC(C)(C)C(Br)C4` (stereo not given), for which the result in the data set with NCI-H187 [6] and with KB [7] was inactive. Moreover, the Activity result in the data set on Vero [8] is reported as “Non-toxic”.
Take `Cc1c2ccncc2c(C)c2c1[nH]c1ccccc12` [ELLIPTECINE]: the results for the pIC50 with NCI-H187 [1] and in the data set on Vero [3] were 5.56 and 5.42, respectively.
Regarding `CC1(C)Oc2c(C=O)cc3c([nH]c4ccccc43)c2CC1Br` (stereo not given), the pIC50 is 4.11 in the data set on NCI-H187 [1] and 5.22 with KB [2]. The Activity result with Vero [8] is on record as “Non-toxic”.
For `COc1ccc2c(c1)[nH]c1c(CC=C(C)C)c(O)c(C=O)cc12`, the Activity entry in the data set on Vero [8] was “Non-toxic”.
Turning to `CC(C)(O)C(Br)Cc1c(O)c(C=O)cc2c1[nH]c1ccccc12` (stereo not given), the pIC50 was 4.52 in the data set on NCI-H187 [1] and 4.76 with KB [2]. In addition, the Activity entry with Vero [8] is listed as “Non-toxic”.
`COc1ccc2c(c1)[nH]c1c3c(c(C=O)cc12)OC(C(C)(C)O)C3` (stereo not given): the pIC50 in the data set on NCI-H187 [1] is 4.89; in the data set on KB [2] it was 4.15. The Activity entry in the data set with Vero [8] is listed as “Non-toxic”.
With `COc1ccc2c(c1)[nH]c1c(CC=C(C)C)c(OC)c(C=O)cc12`, the pIC50 in the data set with NCI-H187 [1] was 4.71; in the data set on KB [2], 4.96; in the data set with Vero [3], 4.21.
`COc1c(C=O)cc2c([nH]c3ccccc32)c1CC=C(C)C`: the values for the pIC50 with NCI-H187 [1], with KB [2] and in the data set on Vero [3] were 5.35, 4.89 and 3.77, respectively.
In the case of `COc1ccc2c(c1)[nH]c1c(CC=C(C)C)c(O)c(/C=N\O)cc12`, the pIC50 was 5.44 with NCI-H187 [1] and 4.74 with KB [2]. Also, the Activity result in the data set on Vero [8] is “Non-toxic”.
Consider `CC1(C)OC1Cc1c(O)c(C=O)cc2c1[nH]c1ccccc12` (stereo not given), for which the pIC50 with NCI-H187 [1] is 5.27; with KB [2], 4.26; in the data set with Vero [3], 4.13.
